Results from US8362201B2 (priority 2000, dated 2013).

Columns and labels:
[1] = tested on: whole-cell calcium channel currents in isolated cockroach neurons; settings: 0.1 µM; cited from earlier work
mouse sensory neuron ICa = type: cell-based
[2] = tested on: insect versus vertebrate calcium channels
[3] = tested on: bee brain calcium channel (ICa); type: cell-based, Apis mellifera

Row | Substance | inhibition of whole-cell calcium channel currents [1] | maximum ICa inhibition (mouse sensory neuron ICa) | EC50 (mouse sensory neuron ICa; read-out: EC50 for inhibition of a component of ICa) | preference for insect versus vertebrate calcium channels [2] | concentration for maximum inhibition of ICa [3] | EC50 ([3]; read-out: EC50 for inhibition of ICa)
1 | omega-atracotoxin-Hv1a [ω-ACTX-Hv1a] | 25±10% | – | – | – | – | –
2 | ω-agatoxin-IVA (KKKCIAKDYGRCKWGGTPCCRGRGCICSIMGTNCECKPRLIMEGLGLA) | – | ~40% | ~20 nM | 2 fold | > 100 nM | 10 nM
